Test results as given in ChEMBL document CHEMBL5715939, “Aurora kinase inhibitors: a new class of targeted drugs in cancer” (Clin Lung Cancer, 2006).

Columns and labels:
Aurora kinase C = biological target: T1, Aurora kinase C (Homo sapiens, UniProt Q9UQB9); assay: Inhibition of human aurora C
T1 sequence (Q9UQB9 whole entry): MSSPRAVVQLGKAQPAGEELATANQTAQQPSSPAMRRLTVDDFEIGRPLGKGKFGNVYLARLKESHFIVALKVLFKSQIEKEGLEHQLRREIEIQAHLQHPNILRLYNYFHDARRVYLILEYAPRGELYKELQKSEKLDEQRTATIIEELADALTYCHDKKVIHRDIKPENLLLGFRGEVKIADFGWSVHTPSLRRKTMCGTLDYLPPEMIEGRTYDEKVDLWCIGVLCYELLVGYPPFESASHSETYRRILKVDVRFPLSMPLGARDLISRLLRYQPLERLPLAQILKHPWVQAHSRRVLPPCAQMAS

[1] = Cmax in plasma of human patient with advanced solid tumors at 0.5 to 12 mg/m2/hr, iv administered by continuous intravenous infusion over 5 days every 4 weeks; type: ADME, organism-based; conditions: dose 0.5-12 mg/m2/hr, time 5 day
[2] = Half life in human patient with advanced solid tumors at 0.5 to 12 mg/m2/hr, iv administered by continuous intravenous infusion over 5 days every 4 weeks; type: ADME, organism-based; conditions: in vivo, dose 0.5-12 mg/m2/hr, time 5 day
Aurora kinase B = Aurora kinase B (Homo sapiens, UniProt Q96GD4); assay: Inhibition of human aurora B
[3] = biological target: T2, Receptor-type tyrosine-protein kinase FLT3 (Homo sapiens, UniProt P36888); assay: Inhibition of human FLT3
T2 sequence (P36888 whole entry): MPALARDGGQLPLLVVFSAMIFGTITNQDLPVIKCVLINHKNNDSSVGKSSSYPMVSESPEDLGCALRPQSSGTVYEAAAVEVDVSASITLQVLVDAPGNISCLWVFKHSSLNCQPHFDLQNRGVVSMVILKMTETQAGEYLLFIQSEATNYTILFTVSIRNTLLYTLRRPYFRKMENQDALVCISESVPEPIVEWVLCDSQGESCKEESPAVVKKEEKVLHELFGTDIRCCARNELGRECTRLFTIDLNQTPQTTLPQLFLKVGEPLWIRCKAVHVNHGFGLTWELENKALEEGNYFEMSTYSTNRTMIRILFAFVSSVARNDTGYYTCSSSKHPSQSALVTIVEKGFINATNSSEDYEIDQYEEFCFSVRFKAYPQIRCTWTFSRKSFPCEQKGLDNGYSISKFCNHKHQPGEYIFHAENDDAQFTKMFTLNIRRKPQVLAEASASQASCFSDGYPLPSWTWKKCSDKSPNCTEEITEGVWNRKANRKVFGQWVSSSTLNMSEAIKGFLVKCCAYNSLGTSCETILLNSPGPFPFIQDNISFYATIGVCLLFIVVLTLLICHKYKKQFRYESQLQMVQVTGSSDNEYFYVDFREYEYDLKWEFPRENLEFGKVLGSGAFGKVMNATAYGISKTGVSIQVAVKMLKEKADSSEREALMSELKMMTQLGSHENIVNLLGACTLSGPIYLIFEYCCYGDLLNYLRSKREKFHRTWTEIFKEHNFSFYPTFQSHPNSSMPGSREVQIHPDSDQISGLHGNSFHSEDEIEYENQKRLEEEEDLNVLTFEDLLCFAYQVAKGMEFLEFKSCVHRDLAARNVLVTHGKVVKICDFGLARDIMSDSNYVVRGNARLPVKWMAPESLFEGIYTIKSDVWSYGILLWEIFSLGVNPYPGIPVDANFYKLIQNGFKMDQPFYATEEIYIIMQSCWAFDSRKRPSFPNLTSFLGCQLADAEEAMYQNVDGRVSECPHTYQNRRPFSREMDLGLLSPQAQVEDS

Chain of Aurora kinase B (Q96GD4 whole entry): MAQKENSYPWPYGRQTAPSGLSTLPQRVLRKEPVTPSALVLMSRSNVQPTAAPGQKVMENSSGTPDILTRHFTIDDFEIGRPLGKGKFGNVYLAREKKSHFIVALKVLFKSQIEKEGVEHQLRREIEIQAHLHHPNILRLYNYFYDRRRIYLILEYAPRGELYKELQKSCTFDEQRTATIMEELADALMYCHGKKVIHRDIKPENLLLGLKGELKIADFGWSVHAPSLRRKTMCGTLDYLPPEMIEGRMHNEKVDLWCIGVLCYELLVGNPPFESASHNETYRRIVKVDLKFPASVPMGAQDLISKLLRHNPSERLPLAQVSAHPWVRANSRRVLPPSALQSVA

Compound: CCN(CCCOc1ccc2c(Nc3cc(CC(=O)Nc4cccc(F)c4)n[nH]3)ncnc2c1)CCOP(=O)(O)O [BARASERTIB]
- Ki (Aurora kinase C): 17 nM

Compound: Cc1cc(Nc2cc(N3CCN(C)CC3)nc(Sc3ccc(NC(=O)C4CC4)cc3)n2)[nH]n1 [TOZASERTIB]
- Cmax [1]: 650 nM
- half-life [2]: 15 h

Compound: O=C(Nc1c[nH]nc1-c1nc2cc(CN3CCOCC3)ccc2[nH]1)NC1CC1 [AT-9283]
- IC50 (Aurora kinase B): < 3 nM

Compound: CCc1cccc(CC)c1NC(=O)N1Cc2n[nH]c(NC(=O)c3ccc(N4CCN(C)CC4)cc3)c2C1 [PHA-680632]
- IC50 [3]: 390 nM
- IC50 (Aurora kinase B): 35 nM
